Key:
[1] = Highest frequency of moderate liver toxicity observed during clinical trials, expressed as a percentage. [column '% BIOL' in source]; conditions: human
[2] = Highest frequency of acute liver toxicity observed during clinical trials, expressed as a percentage. [column '% AIGUE' in source]; conditions: human
[3] = human, serum
[4] = human, serum; remark: listed apart in the source
[5] = human
[6] = human; remark: listed apart in the source
[7] = human; remark: listed apart in the source
[8] = human, serum, 4383 h
[9] = human; remark: listed apart in the source
[10] = human; remark: listed apart in the source
[11] = human; remark: listed apart in the source
[12] = human; remark: listed apart in the source
[13] = human; remark: listed apart in the source
[14] = human; remark: listed apart in the source
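Throughout, for Hepatotoxicity (association with vascular disease): count of indexed literature references reporting vascular liver injury in humans, e.g. peliosis hepatitis, hepatic veno-occlusive disease or Budd-Chiari syndrome.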
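Throughout, for Hepatotoxicity (benign tumour): value is a count of indexed literature references citing a benign tumour confirmed by histopathology.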
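Throughout, for Hepatotoxicity (choleostasis): human cholestatic liver injury, shown by histopathology or by peak ALT or AST elevation over alkaline phosphatase ratio below 2, value counts indexed literature reports.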
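Throughout, for Hepatotoxicity (chronic liver disease): chronic liver injury confirmed by histopathology or persistently raised serum aminotransferase activity beyond 6 months, value given as the count of indexed literature references.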
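Throughout, for Hepatotoxicity (cirrhosis): value is a count of indexed literature references reporting cirrhosis confirmed by histopathology.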
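Throughout, for Hepatotoxicity (cytolytic): human cytolytic liver injury, shown by histopathology or by a ratio above 5 of peak ALT or AST elevation to alkaline phosphatase elevation, value counts indexed references.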
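Throughout, for Hepatotoxicity (granulomatous hepatitis): value is a count of indexed literature references reporting granulomatous liver disease confirmed by histopathology.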
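Throughout, for Hepatotoxicity (malignant tumour): malignant tumour confirmed by histopathology, value gives the count of indexed literature references reporting it.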
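Throughout, for Hepatotoxicity (severe hepatitis): human clinical data: severe hepatitis, meaning potentially life-threatening liver failure or clinically observed cases, the value counts how many indexed literature references report it.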
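Throughout, for Hepatotoxicity (steatosis): steatosis confirmed by histopathology, value is the count of indexed references.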

SMILES | Hepatotoxicity (moderate) [1] [%] | Hepatotoxicity (acute) [2] [%] | Hepatotoxicity (moderate) [3] | Hepatotoxicity (acute) [4] | Hepatotoxicity (cytolytic) [5] | Hepatotoxicity (choleostasis) [6] | Hepatotoxicity (severe hepatitis) [7] | Hepatotoxicity (chronic liver disease) [8] | Hepatotoxicity (cirrhosis) [9] | Hepatotoxicity (granulomatous hepatitis) [10] | Hepatotoxicity (association with vascular disease) [11] | Hepatotoxicity (steatosis) [12] | Hepatotoxicity (malignant tumour) [13] | Hepatotoxicity (benign tumour) [14] | Hepatotoxicity (moderate) ([1]; Liver) [%] | Hepatotoxicity (acute) ([2]; Liver) [%] | Hepatotoxicity (severe hepatitis) ([7]; Liver)
O=C(O)[C@@H](S)[C@@H](S)C(=O)O | 56.7 | 0 | 3 | 0 | 0 | 0 | 0 | 0 | 0 | 0 | 0 | 0 | 0 | 0 |  |  | 
CCOC(=O)[C@H](CCc1ccccc1)N[C@@H](C)C(=O)N1Cc2ccccc2C[C@H]1C(=O)O | 10 | 0 | 3 | 1 | 0 | 0 | 0 | 0 | 0 | 0 | 0 | 0 | 0 | 0 |  |  | 
CO/N=C(\C(=O)N[C@@H]1C(=O)N2C(C(=O)[O-])=C(C[N+]3(C)CCCC3)CS[C@H]12)c1csc(N)n1 |  |  | 52 | 0 | 0 | 0 |  | 0 | 0 | 0 | 0 | 0 | 0 | 0 | 37.5 | 0 | 0
O=C(Nc1cccc2c(=O)cc(-c3nnn[nH]3)oc12)c1ccc(OCCCCc2ccccc2)cc1 | 2.1 | 0 | 1 | 0 | 0 | 0 | 0 | 0 | 0 | 0 | 0 | 0 | 0 | 0 |  |  | 
CC(=O)N[C@@H]1[C@H](Oc2c3cc4cc2Oc2ccc(cc2Cl)[C@@H](O[C@@H]2O[C@@H](CO)[C@@H](O)[C@H](O)[C@@H]2NC(C)=O)[C@@H]2NC(=O)[C@H](NC(=O)[C@@H]4NC(=O)[C@H]4NC(=O)[C@@H](Cc5ccc(c(Cl)c5)O3)NC(=O)[C@H](N)c3ccc(O)c(c3)Oc3cc(O)cc4c3)c3ccc(O)c(c3)-c3c(O[C@H]4O[C@H](CO)[C@@H](O)[C@@H](O)[C@@H]4O)cc(O)cc3[C@@H](C(=O)O)NC2=O)O[C@@H](CO)[C@@H](O)[C@@H]1O | 26.9 | 0.9 | 36 | 4 | 1 | 1 | 0 | 0 | 0 | 0 | 0 | 0 | 0 | 0 |  |  | 
CC(CCC(=O)O)C1CC[C@H]2[C@@H]3CC[C@@H]4C[C@H](O)CC[C@]4(C)[C@H]3CC[C@]12C (some centres undefined) | 11.1 | 0 | 1 | 0 | 0 | 0 | 0 | 0 | 0 | 0 | 0 | 0 | 0 | 0 |  |  | 
CO/N=C(\C(=O)N[C@@H]1C(=O)N2C(C(=O)OCOC(=O)C(C)(C)C)=C(Cn3nnc(C)n3)CS[C@H]12)c1csc(N)n1 | 3.3 | 0 | 9 | 0 | 0 | 0 | 0 | 0 | 0 | 0 | 0 | 0 | 0 | 0 |  |  | 
CN1CC[C@@H]2Nc3ccccc3[C@@H]2C1.Cl.Cl | 0 | 0 | 0 | 1 | 0 | 1 | 0 | 0 | 0 | 0 | 0 | 0 | 0 | 0 |  |  | 
CC(=N)N1CC[C@H](SC2=C(C(=O)O)N3C(=O)[C@H]([C@@H](C)O)[C@H]3C2)C1.O=C(O)CCNC(=O)c1ccccc1 | 38.5 | 0 | 60 | 1 | 0 | 1 | 0 | 0 | 0 | 0 | 0 | 0 | 0 | 0 |  |  | 
CCc1nc(N)nc(N)c1-c1ccc(Cl)cc1.Nc1ccc(S(=O)(=O)c2ccc(N)cc2)cc1 | 25.3 | 2.9 | 1 | 3 | 1 | 0 | 0 | 0 | 0 | 0 | 0 | 0 | 0 | 0 |  |  | 
COc1ccc(/C=C/C(=O)Nc2ccccc2C(=O)O)cc1OC | 7.5 | 0 | 6 | 1 | 0 | 0 | 0 | 0 | 0 | 0 | 0 | 0 | 0 | 0 |  |  | 
